Reference: patent publication US12667572B2, “Tricyclic compounds useful in the treatment of cancer, autoimmune and inflammatory disorders” (SCHRÖDINGER, INC., priority 2021, dated 2026)

Target: T1, full-length MALT1 protein His-MALT1(1-824) (Homo sapiens, UniProt Q9UDY8)
T1 construct: full-length MALT1 protein His-MALT1(1-824); His (N); made in house; host or cells: baculovirus-infected insect cells
T1 sequence (Q9UDY8 1-824): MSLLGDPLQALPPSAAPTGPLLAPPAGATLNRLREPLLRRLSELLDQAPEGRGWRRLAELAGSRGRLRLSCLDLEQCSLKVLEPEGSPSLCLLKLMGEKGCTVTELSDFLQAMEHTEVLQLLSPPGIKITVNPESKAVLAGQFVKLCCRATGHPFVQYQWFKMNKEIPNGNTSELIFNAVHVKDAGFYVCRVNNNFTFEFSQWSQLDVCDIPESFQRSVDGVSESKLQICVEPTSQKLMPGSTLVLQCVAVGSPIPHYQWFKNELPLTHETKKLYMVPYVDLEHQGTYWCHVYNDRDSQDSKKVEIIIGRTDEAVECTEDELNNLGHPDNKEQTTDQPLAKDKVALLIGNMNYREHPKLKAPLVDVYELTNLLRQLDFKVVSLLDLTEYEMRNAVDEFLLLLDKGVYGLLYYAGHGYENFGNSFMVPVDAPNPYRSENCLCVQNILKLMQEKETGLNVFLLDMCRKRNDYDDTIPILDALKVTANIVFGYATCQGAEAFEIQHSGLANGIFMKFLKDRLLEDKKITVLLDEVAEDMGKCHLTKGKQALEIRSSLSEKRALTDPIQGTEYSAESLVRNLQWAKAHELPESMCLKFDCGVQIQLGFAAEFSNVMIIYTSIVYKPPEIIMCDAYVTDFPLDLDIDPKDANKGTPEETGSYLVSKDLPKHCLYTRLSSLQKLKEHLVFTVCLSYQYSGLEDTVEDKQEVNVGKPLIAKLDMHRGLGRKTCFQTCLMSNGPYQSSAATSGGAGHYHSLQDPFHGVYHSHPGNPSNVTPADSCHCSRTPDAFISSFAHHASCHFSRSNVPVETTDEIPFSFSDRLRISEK
Experiment: MALT1 protease assay, Assay 2 (1 nM MALT1, Ac-LRSR-AMC substrate)
Type: biochemical
Conditions: 1 nM MALT1, 50 μM Ac-LRSR-AMC, 2 h pre-incubation, 8 hr incubation at RT
Summary of the method: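 Full-length His-MALT1(1-824) from baculovirus-infected insect cells, pre-incubated with compound 2 h at RT (0.1% DMSO). Then 50 μM Ac-LRSR-AMC added. Buffer was Tris pH 7.5 with 600 mM sodium citrate, DTT, EDTA and BSA. Fluorescence (ex 355/em 460 nm) was read after 8 h at RT and normalized to high/low controls. IC50 from non-linear regression.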

| SMILES | IC50 [nM] |
| --- | --- |
| CC1(C)C[C@@H](C(=O)Nc2cc(C#N)c(OC(F)F)cn2)c2cnc3cc(F)nn3c21 (single isomer, unassigned) [Example 169] | ≥ 1000 |
| C[C@]1(C(F)(F)F)C[C@@H](C(=O)Nc2cnc(-n3nccn3)c(Cl)c2)c2cnc3cc(F)nn3c21 (single isomer, unassigned) [Example 184] | 100 to 1000 |
| O=C(Nc1cnc(-n2nccn2)c(Cl)c1)C1CC2(CCC2)c2c1cnc1cc(F)nn21 (single isomer, unassigned) [Example 109, N-(5-chloro-6-(2H-1,2,3-triazol-2-yl)pyridin-3-yl)-2′-fluoro-6′,7′-dihydrospiro[cyclobutane-1,8′-cyclopenta[e]pyrazolo[1,5-a]pyrimidine]-6′-carboxamide] | ≥ 1000 |
| CC1(C)CC(C(=O)Nc2cnc(N3CCC3=O)c(Cl)c2)c2cnc3cc(F)nn3c21 (stereo not drawn) [Example 176, N-(5-chloro-6-(2-oxoazetidin-1-yl)pyridin-3-yl)-2-fluoro-8,8-dimethyl-7,8-dihydro-6H-cyclopenta[e]pyrazolo[1,5-a]pyrimidine-6-carboxamide] | 100 to 1000 |
| CC1(C)C[C@@H](C(=O)Nc2cc(C(F)F)c(-c3ncco3)c(=O)[nH]2)c2cnc3cc(Cl)nn3c21 (single isomer, unassigned) [Example 57, 2-chloro-N-(4-(difluoromethyl)-5˜(oxazol-2-yl)-6-oxo-1,6-dihydropyridin-2-yl)-8,8-dimethyl-7,8-dihydro-6H-cyclopenta[e]pyrazolo[1,5-a]pyrimidine-6-carboxamide] | 100 to 1000 |
| CNC(=O)c1ncc(NC(=O)C2CC(C)(C)c3c2cnc2cc(Cl)nn32)cc1C(F)(F)F (single isomer, unassigned) [Example 155, 2-chloro-8,8-dimethyl-N-(6-(methylcarbamoyl)-5-(trifluoromethyl)pyridin-3-yl)-7,8-dihydro-6H-cyclopenta[e]pyrazolo[1,5-a]pyrimidine-6-carboxamide] | 10 to 100 |
| CC1(C)C[C@@H](C(=O)Nc2cnc(C(=O)NC3CC3)c(C(F)F)c2)c2cnc3cc(Cl)nn3c21 (single isomer, unassigned) [Example 172] | ≥ 1000 |
| CC1(C)CC(C(=O)Nc2cc(C(F)F)c(-n3cccn3)c(=O)[nH]2)c2cnc3cc(Cl)nn3c21 (stereo not drawn) [Example 62, 2-chloro-N-(4-(difluoromethyl)-6-oxo-5-(1H-pyrazol-1-yl)-1,6-dihydropyridin-2-yl)-8,8-dimethyl-7,8-dihydro-6H-cyclopenta[e]pyrazolo[1,5-a]pyrimidine-6-carboxamide] | 10 to 100 |
| CC1(C)C[C@@H](C(=O)Nc2cnc(-n3nccn3)c(C(F)F)c2)c2cnc3cc(Cl)nn3c21 (single isomer, unassigned) [Example 46, 2-chloro-N-(5-(difluoromethyl)-6-(2H-1,2,3-triazol-2-yl)pyridin-3-yl)-8,8-dimethyl-7,8-dihydro-6H-cyclopenta[e]pyrazolo[1,5-a]pyrimidine-6-carboxamide] | ≥ 1000 |
| Cc1cc(NC(=O)C2CC(C)(C)c3c2cnc2cc(F)nn32)cnc1-c1cnn(C)c1 (stereo not drawn) [Example 178, 2-fluoro-8,8-dimethyl-N-(5-methyl-6-(1-methyl-1H-pyrazol-4-yl)pyridin-3-yl)-7,8-dihydro-6H-cyclopenta[e]pyrazolo[1,5-a]pyrimidine-6-carboxamide] | ≥ 1000 |
| CC1(C)OC(C(=O)Nc2cnc(-n3nccn3)c(Cl)c2)c2cnc3cc(Cl)nn3c21 (single isomer, unassigned) [Example 70, 2-chloro-N-(5-chloro-6-(2H-1,2,3-triazol-2-yl)pyridin-3-yl)-8,8-dimethyl-6,8-dihydrofuro[3,4-e]pyrazolo[1,5-a]pyrimidine-6-carboxamide] | ≥ 1000 |
| C[C@H](O)c1cnn(-c2ncc(NC(=O)[C@@H]3CC(C)(C)c4c3cnc3cc(Cl)nn43)cc2Cl)n1 (single isomer, unassigned) [Example 50, 2-chloro-N-(5-chloro-6-(4-(1-hydroxyethyl)-2H-1,2,3-triazol-2-yl)pyridin-3-yl)-8,8-dimethyl-7,8-dihydro-6H-cyclopenta[e]pyrazolo[1,5-a]pyrimidine-6-carboxamide] | ≥ 1000 |
| CC1(C)CC(O)(C(=O)Nc2cnc(-n3nccn3)c(Cl)c2)c2cnc3cc(Cl)nn3c21 (stereo not drawn) [Example 69, 2-chloro-N-(5-chloro-6-(2H-1,2,3-triazol-2-yl)pyridin-3-yl)-6-hydroxy-8,8-dimethyl-7,8-dihydro-6H-cyclopenta[e]pyrazolo[1,5-a]pyrimidine-6-carboxamide] | ≥ 1000 |
| O=C(Nc1cnc([C@@H](O)C(F)F)c(Cl)c1)[C@H]1CC2(CCC2)c2c1cnc1cc(F)nn21 (single isomer, unassigned) [Example 135, N-(5-chloro-6-(2,2-difluoro-1-hydroxyethyl)pyridin-3-yl)-2′-fluoro-6′,7′-dihydrospiro[cyclobutane-1,8′-cyclopenta[e]pyrazolo[1,5-a]pyrimidine]-6′-carboxamide] | 100 to 1000 |
| CC1(C)C[C@H](C(=O)Nc2cc(C#N)c(OC(F)F)cn2)c2cnc3cc(F)nn3c21 (single isomer, unassigned) [Example 170] | 10 to 100 |
| CC1(C)C[C@@H](C(=O)Nc2cnc(OC(F)F)c(C#N)c2)c2cnn3cc(C(F)F)nc3c21 (single isomer, unassigned) [Example 198, N-(5-cyano-6-(difluoromethoxy)pyridin-3-yl)-2-(difluoromethyl)-9,9-dimethyl-8,9-dihydro-7H-cyclopenta[d]imidazo[1,2-b]pyridazine-7-carboxamide] | ≥ 1000 |
| CC1(C)C[C@@H](C(=O)Nc2cnc(-n3nccn3)c(C#N)c2)c2cnc3cc(Cl)nn3c21 (single isomer, unassigned) [Example 106, 2-chloro-N-(5-cyano-6-(2H-1,2,3-triazol-2-yl)pyridin-3-yl)-8,8-dimethyl-7,8-dihydro-6H-cyclopenta[e]pyrazolo[1,5-a]pyrimidine-6-carboxamide] | 10 to 100 |
| N#Cc1cc(NC(=O)[C@@H]2CC3(CCC3)c3c2cnc2cc(F)nn32)cnc1OC(F)F (single isomer, unassigned) [Example 102, N-(5-cyano-6-(difluoromethoxy)pyridin-3-yl)-2′-fluoro-6′,7′-dihydrospiro[cyclobutane-1,8′-cyclopenta[e]pyrazolo[1,5-a]pyrimidine]-6′-carboxamide] | 100 to 1000 |
| Cc1cc2cc(F)c3c(n2n1)C(C)(C)C[C@H]3C(=O)Nc1cnc(-n2nccn2)c(Cl)c1 (single isomer, unassigned) [Example 156, N-(5-chloro-6-(2H-1,2,3-triazol-2-yl)pyridin-3-yl)-5-fluoro-2,8,8-trimethyl-7,8-dihydro-6H-cyclopenta[e]pyrazolo[1,5-a]pyridine-6-carboxamide] | ≥ 1000 |
| CC1(C)CC(C(=O)Nc2cnc(OC(F)F)c(Cl)c2)c2cnc3cc(F)nn3c21 (single isomer, unassigned) [Example 76, N-(5-chloro-6-(difluoromethoxy)pyridin-3-yl)-2-fluoro-8,8-dimethyl-7,8-dihydro-6H-cyclopenta[e]pyrazolo[1,5-a]pyrimidine-6-carboxamide] | ≥ 1000 |
| CC1(C)C[C@@H](C(=O)Nc2cc(N=S(C)(C)=O)nc(C(F)(F)F)c2)c2cnc3cc(F)nn3c21 (single isomer, unassigned) [Example 127, N-(2-((dimethyl(oxo)-λ^6-sulfaneylidene)amino)-6-(trifluoromethyl)pyridin-4-yl)-2-fluoro-8,8-dimethyl-7,8-dihydro-6H-cyclopenta[e]pyrazolo[1,5-a]pyrimidine-6-carboxamide] | ≥ 1000 |
| CC1(C)C[C@H](C(=O)Nc2cnc(C(=O)NC3CC3)c(C(F)F)c2)c2cnc3cc(Cl)nn3c21 (single isomer, unassigned) [Example 173] | 10 to 100 |
| CC1(C)CC(C(=O)Nc2cnc(-n3nccn3)c(C#N)c2)c2cnc3cc(C(F)F)nn3c21 (single isomer, unassigned) [Example 130, N-(5-cyano-6-(2H-1,2,3-triazol-2-yl)pyridin-3-yl)-2-(difluoromethyl)-8,8-dimethyl-7,8-dihydro-6H-cyclopenta[e]pyrazolo[1,5-a]pyrimidine-6-carboxamide] | 10 to 100 |
| CC1(C)CC(C(=O)Nc2cnc(-n3nccn3)c(Cl)c2)c2cnn3cc(C(F)F)nc3c21 (single isomer, unassigned) [Example 203, N-(5-chloro-6-(2H-1,2,3-triazol-2-yl)pyridin-3-yl)-2-(difluoromethyl)-9,9-dimethyl-8,9-dihydro-7H-cyclopenta[d]imidazo[1,2-b]pyridazine-7-carboxamide] | 10 to 100 |
